Experimental findings from patent publication US20220009894A1, “1,2,3,4-TETRAHYDROQUINOXALINE DERIVATIVE, PREPARATION METHOD THEREFOR AND APPLICATION THEREOF” (Abbisko Therapeutics Co., Ltd., priority 2019, published 2022) are described below.

The target in one experiment is T1, RORγt-LBD (Homo sapiens, UniProt P51449).
T1 sequence (P51449 269-508 limits assumed): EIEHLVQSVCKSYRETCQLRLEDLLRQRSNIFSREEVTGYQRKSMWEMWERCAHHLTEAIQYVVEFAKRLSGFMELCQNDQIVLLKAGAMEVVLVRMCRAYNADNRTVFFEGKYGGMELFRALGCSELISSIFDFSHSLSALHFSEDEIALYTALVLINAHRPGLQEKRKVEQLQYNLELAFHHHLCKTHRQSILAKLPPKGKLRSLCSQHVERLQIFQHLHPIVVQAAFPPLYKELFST
Description: Time-resolved fluorescence resonance energy-transfer assay (TR-FRET), co-activator peptide recruitment. The experiment is classed as biochemical. On the set-up: TR-FRET Biochemical Amax: unit not given here. The conditions noted are these: for EC50: His-RORγt-LBD 30 nM, SRC peptide 500 nM, agonistic activity, averages of one or more measurements, read-out: TR-FRET Biochemical EC50/; for TR-FRET Biochemical Amax: upper activation limit, His-RORγt-LBD, SRC peptide. An excerpt: I. Time-Resolved Fluorescence Resonance Energy-Transfer Assay (TR-FRET)
This experiment was a screening experiment for RORγt nuclear receptor agonists based on TR-FRET technology. When His-labeled RORγt-LBD receptor binds to receptor agonists, it may increase the recruitment of biotin-labeled co-activator peptides. Europium-His-RORγt-LBD is indirectly labeled by donor (Eu) by binding to Eu-anti-His antibody. Once Eu is activated by an energy source (such as flashlight or laser), the energy will be transferred to the co-activator indirectly labeled by allophycocyanin by binding of allophycocyanin-streptavidin and biotin-labeled co-activator. • 1. 10× buffer (500 mM Tris-HCl, 500 mM KCl, and 10 mM Na-EDTA) was prepared, pH value was adjusted to 7.0. The buffer was stored at 4° C. for later use and was restored to normal temperature before experiment; • 2. The 10× buffer was diluted to 1× with pure water. Final concentration of 0.01% Triton X-100 and 1 mM DTT (dithiothreitol) were added to prepare the assay buffer; • 3. DMSO was used to prepare 1000× compound stock solution. The compound solution was serial-diluted in 5-fold for 7 concentrations from the top concentration of 1000 nM/10000 nM. Then the 10× compound solution was prepared with assay buffer. An amount of 2 μL was aliquoted into the 20 μL system; • 4. 5×RORγt-LBD protein solution was unfreezed, and a solution of 5× concentration was prepared with assay buffer to obtain a final concentration of 30 nM. The whole operation was carried out on ice; • 5. 5×SRC peptide was unfreezed, and a solution of 5× concentration was prepared with assay buffer to obtain a final concentration of 500 nM. The whole operation was carried out on ice; • 6. 4 μL/well of RORγt-LBD receptor was added into the testing wells of 384-well plate, and the same amount of assay buffer was added to the control wells of non-RORγt-LBD group; • 7. 2 μL of compound was added into each well of 384-well plate; • 8. 4 μL of SRC peptide was added into each well of 384-well plate; • 9. 2× Eu-anti-6× His/APC-Streptavidin was diluted with Lance detection buffer to a final concentration of 0.25 nM and 5 nM, respectively, and then 10 μL of 2× Eu-anti-6× His/APC-Streptavidin was added into each well of 384-well plate; • 10. The mixed solution was incubated at 4° C. overnight; • 11. On the morning of the next day, the 384-well plate was incubated at room temperature for 1 hr. Then the corresponding signal values were read with PerkinElmer EnVision at a wavelength of 665/615 […]. The agonistic activity of the corresponding compound was calculated with Graphpad Prism 7.0 software.
For orientation: TR-FRET usually uses a lanthanide donor and a delayed reading to cut background.

A further experiment has as its target T2, RORγt (Homo sapiens, UniProt P51449).
T2 construct: The plasmid of pFN26A-RORγt-LBD and pG14.35 (Promega, Cat. No. E1370) were co-transfected into HEK 293 cells; expressed in transfected cells; host or cells: HEK 293 cells (Cat. No. GNHu18)
T2 sequence (P51449 269-508 limits assumed): T1 sequence (P51449 269-508 limits assumed)
Briefly: RORγt cellular reporter gene detection assay.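 As to Cellular Reporter Assay Amax: Ursolic Acid added as 5 µL of 20 µM medium per well.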 Format: cell-based. The conditions noted are these: 24 hrs; for EC50: HEK 293 cells co-transfected with pFN26A-RORγt-LBD and pG14.35, in presence of antagonist Ursolic acid, top concentration 50 μM; for Cellular Reporter Assay Amax: upper activation limit, HEK 293 cells, in presence of antagonist Ursolic acid. As for the experimental part:
II. RORγt Cellular Reporter Gene Detection Assay
In this experiment, RORγt Reporter Gene Detection method was used to evaluate the activation and specificity of compounds to RORγt in cells. The plasmid of pFN26A-RORγt-LBD and pG14.35 (Promega, Cat. No. E1370) were co-transfected into HEK 293 cells (Cat. No. GNHu18). The efficacy of compounds was evaluated with the presence of an antagonist Ursolic acid (Selleck, Cat. No. S2370-100 mg). The specific experimental process was as follow: • 1. The plasmids-co-transfected cells were inoculated into a 96-well plate (Corning, Cat. No 3610) in a fresh DMEM medium (Gibco, cat. No. 1773536) containing 10% fetal bovine serum (Gibco, Cat. No. 10099-141) at 30000 cells/40 μL/well; • 2. 5 μL of medium containing 20 μM Ursolic acid was added thereto; • 3. The dose effect was evaluated by a 4-fold dilution of the test compound starting from 50 μM; • 4. 5 μL of medium containing a compound concentration of 10-fold of its final test concentration was added; • 5. After the cells were incubated at 37° C. and 5% CO2 for 24 hrs, 50 μL of detection reagent was added to detect firefly fluorescence using PerkinElmerEnVision, and 50 μL of the second detection reagent was added to detect sea kidney fluorescence; • 6. A four-parameter curve simulated in GraphPad Prism was used to determine the concentration for 50% activation (EC50) and the upper activation limit (Amax) for each compound.
On the technique in general: A reporter such as luciferase makes a cellular process visible.

For `C/C(=C\c1ccc2c(c1)N(S(=O)(=O)c1cccc(C(F)(F)F)c1)C[C@@H]1C[C@](C)(OCCC(=O)O)CCN21)c1c(F)cccc1Cl` [Example 121], at RORγt-LBD, the EC50 came to 0.0121 µM and the “TR-FRET Biochemical Amax” value was 0.98. Moreover, on RORγt, the EC50 turned out to be 0.378 µM and the “Cellular Reporter Assay Amax” value is 2.4.

`O=S(=O)(c1cccc(C(F)(F)F)c1)N1C[C@@H]2CN(C[C@H](O)CO)CCN2c2ccc(-c3cc(F)cc(OC(F)F)c3)cc21` [Example 40, (S)-3-((S)-8-(3-(difluoromethoxy)-5-fluorophenyl)-6-((3-(tri-fluoromethyl)phenyl)sulfonyl)-1,2,4,4a,5,6-hexahydro-3H-pyrazino[1,2-a]quinoxalin-3-yl) propane-1,2-diol]: at RORγt-LBD, the EC50 was 0.013 µM and the “TR-FRET Biochemical Amax” value turned out to be 0.76. Also, on RORγt, the EC50 was determined as 0.733 µM and the “Cellular Reporter Assay Amax” value is listed as 2.5.

As to `COC(=O)CN1CCN2c3ccc(/C=C/c4c(Cl)cccc4C(F)(F)F)cc3N(S(=O)(=O)c3cccc(C(F)(F)F)c3)C[C@@H]2C1` [Example 45, methyl (S,E)-2-(8-(2-chloro-6-(trifluoromethyl)styryl)-6-((3-(trifluoromethyl)phenyl)sulfonyl)-1,2,4,4a,5,6-hexahydro-3H-pyrazino[1,2-a]quinoxalin-3-yl) acetate], the EC50 on RORγt-LBD was determined as 0.0105 µM; on RORγt it was 0.375 µM.

`N#Cc1cccc(-c2ccc3c(c2)N(S(=O)(=O)c2cccc(C(F)(F)F)c2)C[C@@H]2CN(CC(=O)O)CCN32)c1F` [Example 94, (S)-2-(8-(3-cyano-2-fluorophenyl)-6-((3-(trifluoromethyl)phenyl)sulfonyl)-1,2,4,4a,5,6-hexahydro-3H-pyrazino[1,2-a]quinoxalin-3-yl)acetic acid]: on RORγt-LBD, the EC50 was 0.159 µM and the “TR-FRET Biochemical Amax” value is recorded as 0.27. On RORγt, the EC50 stood at 3.55 µM and the “Cellular Reporter Assay Amax” value is 1.8.

Regarding `C[C@]1(OCCC(=O)O)CCN2c3ccc(-c4cc(F)cc(OC(F)F)c4)cc3N(S(=O)(=O)c3cccc(C(F)(F)F)c3)C[C@@H]2C1` [Example 114, 3-(((6aS,8S)-3-(3-(difluoro-methoxy)-5-fluorophenyl)-8-methyl-5-((3-(trifluorometh-yl)phenyl)sulfonyl)-6,6a,7,8,9,10-hexahydro-5H-py-rido[1,2-a]quinoxalin-8-yl)oxy)propanoic acid], on RORγt-LBD, the EC50 was found to be 0.113 µM and the “TR-FRET Biochemical Amax” value is reported as 0.51. At RORγt, the EC50 was determined as 0.969 µM and the “Cellular Reporter Assay Amax” value was determined as 5.3.

`COC(=O)CC[C@H]1CN(S(=O)(=O)c2cccc(C(F)(F)F)c2)c2cc(/C=C(\C)c3c(F)cccc3Cl)ccc2N1C` [Example 120, methyl (S,E)-3-(6-(2-(2-chloro-6-fluorophenyl)prop-1-en-1-yl)-1-methyl-4-((3-(trifluoromethyl)phenyl)sulfonyl)-1,2,3,4-tetrahydroquinoxalin-2-yl)propanoate]: on RORγt-LBD, the EC50 worked out at 0.0649 µM and the “TR-FRET Biochemical Amax” value is 1.07. Moreover, on RORγt, the EC50 came out at 0.157 µM and the “Cellular Reporter Assay Amax” value was found to be 5.7.

In the case of `CS(=O)(=O)N1CCN2c3ccc(-c4cc(F)cc(OC(F)F)c4)cc3N(S(=O)(=O)c3cccc(C(F)(F)F)c3)C[C@@H]2C1` [Example 8, (S)-8-(3-(difluoromethoxy)-5-fluorophenyl)-3-(methylsulfonyl)-6-((3-(trifluoromethyl)phenyl)sulfonyl)-2,3,4,4a,5,6-hexahydro-1H-pyrazino[1,2-a]quinoxaline], at RORγt-LBD, the EC50 is 0.0133 µM and the “TR-FRET Biochemical Amax” value came out at 1.22. In addition, at RORγt, the EC50 worked out at 0.0904 µM and the “Cellular Reporter Assay Amax” value amounted to 5.5.

In the case of `O=C(O)CN1CCN2c3ccc(-c4cc(F)cc(OC(F)F)c4)cc3N(S(=O)(=O)c3cccc(C(F)(F)F)c3)C[C@@H]2C1` [Example 9, (S)-2-(8-(3-(difluoromethoxy)-5-fluorophenyl)-6-((3-(trifluoromethyl)phenyl)sulfonyl)-1,2,4,4a,5,6-hexahydro-3H-pyrazino[1,2-a]quinoxalin-3-yl)acetic acid], on RORγt-LBD, the EC50 came to 0.0116 µM and the “TR-FRET Biochemical Amax” value is recorded as 0.63. For the same compound, on RORγt, the EC50 worked out at 0.29 µM and the “Cellular Reporter Assay Amax” value stood at 3.5.

In the case of `CC(C)(C(=O)O)N1CCN2c3ccc(/C=C/c4c(Cl)cccc4C(F)(F)F)cc3N(S(=O)(=O)c3cccc(C(F)(F)F)c3)C[C@@H]2C1` [Example 55, (S,E)-2-(8-(2-chloro-6-(trifluoro-methyl)styryl)-6-((3-(trifluoro-methyl)phenyl)sulfonyl)-1,2,4,4a,5,6-hexahydro-3H-pyrazino [1,2-a]quinoxalin-3-yl)-2-methylpropanoic acid], on RORγt-LBD, the EC50 was 0.0466 µM and the “TR-FRET Biochemical Amax” value is given as 0.78. Moreover, on RORγt, the EC50 amounted to 0.508 µM and the “Cellular Reporter Assay Amax” value is 2.7.

In the case of `O=S1(=O)CCN2c3ccc(-c4cc(F)cc(OC(F)F)c4)cc3N(S(=O)(=O)c3cccc(C(F)(F)F)c3)CC2C1` (stereo not drawn) [Example 102, 8-(3-(difluoromethoxy)-5-fluorophenyl)-6-((3-(trifluoromethyl)phenyl)sulfonyl)-1,2,4,4a,5,6-hexahydro-[1,4]thiazino[4,3-a]quinoxaline 3,3-dioxide], the EC50 was 0.809 µM at RORγt-LBD and 2.15 µM on RORγt.

As to `CN1c2ccc(C3=CC(C)(C)OC(C)(C)C3)cc2N(S(=O)(=O)c2cccc(C(F)(F)F)c2)C[C@@H]1CCC(=O)O` [Example 118, (S)-3-(1-methyl-6-(2,2,6,6-tetramethyl-3,6-dihydro-2H-pyran-4-yl)-4-((3-(trifluoromethyl)phenyl)sulfonyl)-1,2,3,4-tetrahydroquinoxalin-2-yl)propanoic acid], on RORγt-LBD, the EC50 is 0.204 µM and the “TR-FRET Biochemical Amax” value was found to be 0.36. In addition, on RORγt, the EC50 stood at 0.223 µM and the “Cellular Reporter Assay Amax” value is listed as 1.0.

Turning to `CC1(C)C=C(c2ccc3c(c2)N(S(=O)(=O)c2cccc(C(F)(F)F)c2)C[C@@H]2CN(C[C@@H](O)CO)CCN32)CC(C)(C)O1` [Example 41, (R)-3-((S)-8-(2,2,6,6-tetrameth-yl-3,6-dihydro-2H-pyran-4-yl)-6-((3-(trifluoromethyl)phe-nyl)sulfonyl)-1,2,4,4a,5,6-hexa-hydro-3H-pyrazino[1,2-a]qui-noxalin-3-yl)propane-1,2-diol], on RORγt-LBD, the EC50 amounted to 0.00673 µM and the “TR-FRET Biochemical Amax” value was found to be 1.01.
